From PubChem BioAssay AID2060341 (Molecular Pharmacology Branch, DTP, NCI, 2025)

Tested on: 327498-153-R-J2-PDC multicell spheroid viability
Experiment: Anticancer human tumor 327498-153-R-J2-PDC patient-derived uterine carcinosarcoma cell line growth inhibition [IpAb]
Conditions: for IC50: curve of first compound; for viability, T/C: stronger effect = lower value
Outline: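 Combinations with ipatasertib or abemaciclib were tested on tumour spheroids holding HUVEC (25%) and MSC (15%) alongside 60% malignant cells. Top concentration was at or near clinical Cmax (10 microM if undefined), descending in half-log steps.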

[1] = second compound 0.01 µM, first compound 0.0316 µM
[2] = second compound 0.01 µM, first compound 0.1 µM
[3] = second compound 0.01 µM, first compound 0.316 µM
[4] = second compound 0.01 µM, first compound 1 µM
[5] = second compound 0.01 µM, first compound 3.16 µM
[6] = second compound 0.01 µM, first compound 10 µM
[7] = second compound 0.0316 µM, first compound 0.0316 µM
[8] = second compound 0.0316 µM, first compound 0.1 µM
[9] = second compound 0.0316 µM, first compound 0.316 µM
[10] = second compound 0.0316 µM, first compound 1 µM
[11] = second compound 0.0316 µM, first compound 3.16 µM
[12] = second compound 0.0316 µM, first compound 10 µM
[13] = second compound 0.1 µM, first compound 0.0316 µM
[14] = second compound 0.1 µM, first compound 0.1 µM
[15] = second compound 0.1 µM, first compound 0.316 µM
[16] = second compound 0.1 µM, first compound 1 µM
[17] = second compound 0.1 µM, first compound 3.16 µM
[18] = second compound 0.1 µM, first compound 10 µM
[19] = second compound 0.316 µM, first compound 0.0316 µM
[20] = second compound 0.316 µM, first compound 0.1 µM
[21] = second compound 0.316 µM, first compound 0.316 µM
[22] = second compound 0.316 µM, first compound 1 µM
[23] = second compound 0.316 µM, first compound 3.16 µM
[24] = second compound 0.316 µM, first compound 10 µM
[25] = second compound 1 µM, first compound 0.0316 µM
[26] = second compound 1 µM, first compound 0.1 µM
[27] = second compound 1 µM, first compound 0.316 µM
[28] = second compound 1 µM, first compound 1 µM
[29] = second compound 1 µM, first compound 3.16 µM
[30] = second compound 1 µM, first compound 10 µM
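Also: spheroids exposed to agents for 7 days.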
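For viability, T/C in this document: 100% = DMSO vehicle control viability.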

SMILES: Cn1ncc(Cl)c1-c1cc(C(=O)NC(CN)Cc2cccc(F)c2)sc1Cl (stereo not given) + CCN1CCN(Cc2ccc(Nc3ncc(F)c(-c4cc(F)c5nc(C)n(C(C)C)c5c4)n3)nc2)CC1
- IC50 (second compound 0.01 µM): 312 nM
- IC50 (second compound 0.0316 µM): 125 nM
- IC50 (second compound 0.1 µM): 50.1 nM
- IC50 (second compound 0.316 µM): < 31.6 nM
- IC50 (second compound 1 µM): 64.4 nM
- viability, T/C [1]: 78%
- viability, T/C [2]: 60.3%
- viability, T/C [3]: 48.7%
- viability, T/C [4]: 35.4%
- viability, T/C [5]: 24.5%
- viability, T/C [6]: 0.14%
- viability, T/C [7]: 64.5%
- viability, T/C [8]: 49%
- viability, T/C [9]: 40.5%
- viability, T/C [10]: 27.9%
- viability, T/C [11]: 24%
- viability, T/C [12]: 0.12%
- viability, T/C [13]: 53.4%
- viability, T/C [14]: 46.2%
- viability, T/C [15]: 34.4%
- viability, T/C [16]: 28.1%
- viability, T/C [17]: 21.1%
- viability, T/C [18]: 0.12%
- viability, T/C [19]: 48.9%
- viability, T/C [20]: 44.5%
- viability, T/C [21]: 33.9%
- viability, T/C [22]: 28.9%
- viability, T/C [23]: 20.6%
- viability, T/C [24]: 0.14%
- viability, T/C [25]: 54.1%
- viability, T/C [26]: 49.1%
- viability, T/C [27]: 34.9%
- viability, T/C [28]: 29.9%
- viability, T/C [29]: 21.7%
- viability, T/C [30]: 0.2%

SMILES: CC1(C)CCC(CN2CCN(c3ccc(C(=O)NS(=O)(=O)c4ccc(NCC5CCOCC5)c([N+](=O)[O-])c4)c(Oc4cnc5[nH]ccc5c4)c3)CC2)=C(c2ccc(Cl)cc2)C1 + CCN1CCN(Cc2ccc(Nc3ncc(F)c(-c4cc(F)c5nc(C)n(C(C)C)c5c4)n3)nc2)CC1
- IC50 (second compound 0.01 µM): 5020 nM
- IC50 (second compound 0.0316 µM): 5020 nM
- IC50 (second compound 0.1 µM): 4470 nM
- IC50 (second compound 0.316 µM): 3890 nM
- IC50 (second compound 1 µM): 3560 nM
- viability, T/C [1]: 100%
- viability, T/C [2]: 91.6%
- viability, T/C [3]: 96.6%
- viability, T/C [4]: 86.9%
- viability, T/C [5]: 78.4%
- viability, T/C [6]: 10.2%
- viability, T/C [7]: 78%
- viability, T/C [8]: 75.8%
- viability, T/C [9]: 74.9%
- viability, T/C [10]: 77.2%
- viability, T/C [11]: 77.6%
- viability, T/C [12]: 9.98%
- viability, T/C [13]: 67.4%
- viability, T/C [14]: 71.5%
- viability, T/C [15]: 65.1%
- viability, T/C [16]: 75.9%
- viability, T/C [17]: 67.8%
- viability, T/C [18]: 8.52%
- viability, T/C [19]: 61.8%
- viability, T/C [20]: 54.3%
- viability, T/C [21]: 58.8%
- viability, T/C [22]: 61.4%
- viability, T/C [23]: 61.3%
- viability, T/C [24]: 6.66%
- viability, T/C [25]: 62.9%
- viability, T/C [26]: 60.7%
- viability, T/C [27]: 54.5%
- viability, T/C [28]: 57.8%
- viability, T/C [29]: 54.8%
- viability, T/C [30]: 9.15%

SMILES: CC1(C)CCC(CN2CCN(c3ccc(C(=O)NS(=O)(=O)c4ccc(NCC5CCOCC5)c([N+](=O)[O-])c4)c(Oc4cnc5[nH]ccc5c4)c3)CC2)=C(c2ccc(Cl)cc2)C1 + CC(C)NCC(C(=O)N1CCN(c2ncnc3c2C(C)CC3O)CC1)c1ccc(Cl)cc1
- IC50 (second compound 0.1 µM): 5370 nM
- IC50 (second compound 0.316 µM): 3980 nM
- IC50 (second compound 1 µM): 3500 nM
- IC50 (second compound 3.16 µM): < 31.6 nM
- IC50 (second compound 10 µM): < 31.6 nM
- viability, T/C [13]: 92.4%
- viability, T/C [14]: 96.7%
- viability, T/C [15]: 88.8%
- viability, T/C [16]: 91.6%
- viability, T/C [17]: 84.7%
- viability, T/C [18]: 9.23%
- viability, T/C [19]: 84.1%
- viability, T/C [20]: 76.2%
- viability, T/C [21]: 73%
- viability, T/C [22]: 71.5%
- viability, T/C [23]: 62.9%
- viability, T/C [24]: 5.02%
- viability, T/C [25]: 61.5%
- viability, T/C [26]: 57.1%
- viability, T/C [27]: 56%
- viability, T/C [28]: 51.7%
- viability, T/C [29]: 54.8%
- viability, T/C [30]: 2.82%
- viability, T/C (second compound 3.16 µM, first compound 0.0316 µM): 43.8%
- viability, T/C (second compound 3.16 µM, first compound 0.1 µM): 43.9%
- viability, T/C (second compound 3.16 µM, first compound 0.316 µM): 43.5%
- viability, T/C (second compound 3.16 µM, first compound 1 µM): 42.7%
- viability, T/C (second compound 3.16 µM, first compound 3.16 µM): 42.9%
- viability, T/C (second compound 3.16 µM, first compound 10 µM): 1.99%
- viability, T/C (second compound 10 µM, first compound 0.0316 µM): 34.7%
- viability, T/C (second compound 10 µM, first compound 0.1 µM): 30.8%
- viability, T/C (second compound 10 µM, first compound 0.316 µM): 31.3%
- viability, T/C (second compound 10 µM, first compound 1 µM): 31.1%
- viability, T/C (second compound 10 µM, first compound 3.16 µM): 26.6%
- viability, T/C (second compound 10 µM, first compound 10 µM): 0.91%

SMILES: C=CC(=O)N1CCN(c2nc(=O)n(-c3c(C)ccnc3C(C)C)c3nc(-c4c(O)cccc4F)c(F)cc23)C(C)C1 (stereo not given) + CCN1CCN(Cc2ccc(Nc3ncc(F)c(-c4cc(F)c5nc(C)n(C(C)C)c5c4)n3)nc2)CC1
- IC50 (second compound 0.01 µM): 209 nM
- IC50 (second compound 0.0316 µM): < 31.6 nM
- IC50 (second compound 0.1 µM): < 31.6 nM
- IC50 (second compound 0.316 µM): < 31.6 nM
- IC50 (second compound 1 µM): < 31.6 nM
- viability, T/C [1]: 63.7%
- viability, T/C [2]: 52.8%
- viability, T/C [3]: 49%
- viability, T/C [4]: 44.5%
- viability, T/C [5]: 43%
- viability, T/C [6]: 42.2%
- viability, T/C [7]: 50.3%
- viability, T/C [8]: 42.7%
- viability, T/C [9]: 40%
- viability, T/C [10]: 41.5%
- viability, T/C [11]: 38%
- viability, T/C [12]: 38.4%
- viability, T/C [13]: 42.5%
- viability, T/C [14]: 38.1%
- viability, T/C [15]: 36.9%
- viability, T/C [16]: 30.7%
- viability, T/C [17]: 38.6%
- viability, T/C [18]: 35.5%
- viability, T/C [19]: 35.7%
- viability, T/C [20]: 33.2%
- viability, T/C [21]: 31.5%
- viability, T/C [22]: 32.8%
- viability, T/C [23]: 36.5%
- viability, T/C [24]: 36.8%
- viability, T/C [25]: 37%
- viability, T/C [26]: 36.5%
- viability, T/C [27]: 29.1%
- viability, T/C [28]: 35.5%
- viability, T/C [29]: 38.1%
- viability, T/C [30]: 44.1%
